The text below walks through data of PMC11680018, “Study of Cytotoxicity of Spiro-Fused [3-Azabicyclo[3.1.0]hexane]oxindoles and Cyclopropa[a]pyrrolizidine-oxindoles Against Tumor Cell Lines” (Pharmaceuticals, 2024).

The term IC50 denotes the concentration needed to halve the response being measured.

For experiment [1], the system named is human erythroleukemia (K562) cell line. The experiment in a line: MTS cell proliferation assay, K562. The experiment is classed as cell-based. The following applies: Homo sapiens, MTS. Here is the method:
(§1) Cancer cell lines are valuable in vitro model systems that are widely used in cancer research and drug discovery. Their use is mainly linked to their possibility to provide for experimental purposes an unlimited source of biological material. Here, the 24 and 72 h in vitro MTS assay was used to determine the antiproliferative activity of synthesized spiro-fused cyclopropa[a]pyrrolizidine-2,3′-oxindoles and [3-azabicyclo[3.1.0]hexane]-oxindoles against human erythroleukemia (K562), acute T cell leukemia (Jurkat), cervical carcinoma (HeLa), melanoma (Sk-mel-2), breast cancer adenocarcinoma (MCF-7) as well as mouse colon carcinoma (CT26) cell lines. […] The full results of these investigations are presented in the Supporting Information Figures S1–S6. […] An evaluation of the cytotoxicity of the selected compounds towards normal cells (peripheral blood mononuclear cells) was performed additionally to understand their respective relative selectivities. The selectivity index was obtained using the ratio of measured cytotoxicity between the PBMC cells and each of the cancer cell lines, and the results are presented in Table 3.
(§2) The human erythroleukemia (K-562), cervical carcinoma (HeLa) as well as mouse colon carcinoma (CT26) cell lines were obtained from the Bank of Cell Cultures of the Institute of Cytology of the Russian Academy of Sciences; the human melanoma (Sk-mel-2) cell line was obtained from the Bank of Cell Cultures of the Institute of Cytology and Genetics, Siberian Branch of the Russian Academy of Sciences. The acute T cell leukemia (Jurkat) cell line was obtained from the Bank of Cell Cultures of the Institute of Immunology of the Russian Academy of Medical Sciences. The peripheral blood mononuclear cells (PBMC) were isolated from the blood of healthy donors. K-562, Jurkat, MCF-7, PBMC and CT26 cells were grown on RPMI medium (Hyclone, GE Healthcare Life Sciences, Logan, UT, USA) supplemented with 10% (v/v) fetal bovine serum (Hyclone, GE Healthcare Life Sciences, Logan, UT, USA) and gentamicin (Sigma-Aldrich, St. Louis, MO, USA) at 37 °C in a humidified atmosphere with 5% CO2. HeLa and Sk-mel-2 cells were cultured with the same supplements and conditions in DMEM medium (Hyclone, GE Healthcare Life Sciences, Logan, UT, USA).
(§3) To evaluate the in vitro toxicity of the compounds synthesized, cells were seeded into 96-well plates at a density of 5 × 10^3 cells per well. On the next day, the tested compounds were added to the wells at concentrations ranging from 1 to 30 μg/mL, followed by incubation for 1 and 3 days. Cell proliferation was determined by adding 20 μL of MTS reagent (BioVision, Milpitas, CA, USA) stock solution per well. The plates were incubated for 2 h at 37 °C in a humidified, 5% CO2 atmosphere. The plates were then read at 495 nm using a plate spectrophotometer (Multiskan GO, Thermo Fisher Scientific, Waltham, MA, USA). All samples were measured in triplicate.
Background: Tetrazolium assays rely on reduction of a dye to a coloured formazan, in cell work by metabolically active cells.

The subject of experiment [2] is mouse colon carcinoma (CT26) cell line. The experiment in a line: MTS cell proliferation assay, CT26. As to conditions: Mus musculus, MTS. The class given is cell-based. Here is the method: as §1, §2, §3
Experiment [3] concerns human melanoma (Sk-mel-2) cell line. The experiment in a line: Cell motility by scratch test. The class given is cell-based. The following applies: 10 μg/mL, 36 h, serum-free DMEM; nontreated cells 69.5 ± 17.2. How it is done:
To assess the potential ability of spiro-fused [3-azabicyclo[3.1.0]hexane]oxindoles 4, 11, 12, 18, 24 and cyclopropa[a]pyrrolizidine-2,3′-oxindole 2 to inhibit metastasis associated with cell motility, a scratch test was performed on the human melanoma (Sk-mel-2) cell line. Different fields were analyzed by bright field, and each scratch area was photographed at 0 and 36 h for non-toxic and fast cell visualization. Nontreated Sk-mel-2 cells filled 69.5 ± 17.2, 41.5 ± 5.3, 59.7 ± 8.1, 49.3 ± 5.3, 43.0 ± 12.6, 26.1 ± 2.5 and 55.9 ± 8.6% of the scratched strip while under treatment with spiro-fused oxindole derivatives 2, 4, 11, 12, 18 and 24 cells, respectively.
Cells were seeded at a density of 5 × 10^5 cells per dish onto petri dishes and grown to confluency. A 200 μL pipette tip was used to make scratch wounds and detached cells were removed after that by washing with phosphate-buffered saline. Culture media was replaced with serum-free DMEM in order to inhibit cell proliferation. Compounds to be screened were added at a dose of 10 μg/mL to the cultures and incubated for 36 h. Different fields were analyzed by bright field, and each scratch area was photographed at 0 and 36 h. Images were captured using an Axio Observer Z1 confocal microscope (Carl Zeiss MicroImaging GmbH, Jena, Germany). The percent of wound closure in five randomly chosen fields was calculated with ImageJ software, 1.52v.

Experiment [4] has as its system cervical carcinoma (HeLa) cell line. Put plainly: MTS cell proliferation assay, HeLa. The class given is cell-based, human. The following applies: Homo sapiens, HeLa, MTS. How it is done: as §1, §2, §3
The test system of experiment [5] is melanoma (Sk-mel-2) cell line. The experiment in a line: MTS cell proliferation assay, Sk-mel-2. The class given is cell-based, human. The following applies: Homo sapiens, MTS. How it is done:
as §1, §2, §3

Where two headings read alike, the source gives them in different places.

Take `COC(=O)C1C2(c3ccccc3)C(Cc3c[nH]c4ccccc34)NC3(C(=O)Nc4ccccc43)C12c1ccccc1` (stereo not drawn) [Compound 11]: the IC50 in experiment [1] (read-out: IC50 K562 24 h, K562, 24 h) was 7 ± 1 µM; in experiment [1] (K562, 72 h, read-out: IC50 K562 72 h) it was 7 ± 1 µM; in experiment [2] (read-out: IC50 CT26 24 h, CT26, 24 h), above 40 µM; in experiment [2] (CT26, 72 h, read-out: IC50 CT26 72 h) it was 19 ± 2 µM; in experiment [4] (read-out: IC50 HeLa 24 h, 24 h) it was 15 ± 2 µM; in experiment [4] (72 h, read-out: IC50 HeLa 72 h), 22 ± 2 µM. Also, the IC50 in experiment [5] (read-out: IC50 Sk-mel-2 24 h, Sk-mel-2, 24 h) came to 33 ± 3 µM; in experiment [5] (Sk-mel-2, 72 h, read-out: IC50 Sk-mel-2 72 h), 15 ± 1 µM. In addition, in experiment [3], the “Part of the scratched strip filled by Sk-mel-2 cells” value was 49.3 ± 5.3%.
